{"source": "patent US20160199367A1", "about": "“Composition for the prevention or treatment of the symptoms in the stroke comprising the inhibitor of Pin1” (RESEARCH & BUSINESS FOUNDATION SUNGKYUNKWAN UNIVERSITY, priority 2015, published 2016)", "key": {"[1]": {"system": "NICD1 protein", "experiment": "NICD1 protein expression by western blotting in SH-SY5Y cells", "assay_type": "cell-based, human", "conditions": "5 μM, treated in combination after overexpression of Pin1, SH-SY5Y, FIG. 1B", "protocol": "In Examples according to the present invention, a human neuroblastoma cell line, SH-SY5Y, and a mouse embryonic fibroblast cell line, an MEF cell, were used. All of the cells were cultured in DMEM (Sigma) media containing 10% fetal bovine serum (Gibco, Welgene, Hyclone) and 1% penicillin/streptomycin.\n(§1) A sample was prepared by isolating a protein from cells, and analyzed by 10% sodium dodecyl sulfate (SDS)-polyacrylamide gel electrophoresis using Tris-glycine running buffer. The gel was removed after the electrophoresis, and a transferring process was performed using a transfer buffer containing 0.025 mol/L Tris base, 0.15 mol/L glycine, and 10% (v/v) methanol at 15 V for 1.5 hours to transfer proteins onto a nitrocellulose membrane along an electrical flow. The protein-binding membrane was immersed in blocking buffer (5% non-fat milk in 20 mM Tris-HCl, pH 7.5, 137 mM NaCl, 0.2% Tween-20), and reacted at room temperature for 1 hour. […]\nFirst, to verify the correlation between the Notch1 signaling activity and Pin1, Pin1 protein was overexpressed with Pin1 cDNA in a human neuroblastoma cell line, SH-SY5Y, and a change in expression of a Notch1 signaling-activation molecule, NICD1 protein, was analyzed by western blotting (WB). […]"}, "[2]": {"system": "SH-SY5Y cells", "experiment": "Apoptosis of SH-SY5Y cells under GD or OGD by trypan blue staining", "assay_type": "cell-based, human", "conditions": "OGD or GD condition for 6 hours or 12 hours, juglone 1.5 μM, PiB 5 μM, DTM 5 μM, FIGS. 5A to 5D", "protocol": "By the method as described in Example 4, SH-SY5Y cells were exposed to OGD or GD conditions to induce apoptosis, and Pin1 inhibitors including juglone were treated to verify a neuroprotective effect.\nSH-SY5Y cells were treated with Pin1 inhibitors such as 5-hydroxy-1,4-naphthoquinone (juglone), diethyl-1,3,6,8-tetrahydro-1,3,6,8-tetraoxobenzo phenanthroline-2,7-diacetate (PiB), and dipentamethylene thiuram monosulfide (DTM) at a concentration each of 1.5, 5 or 5 μM, and exposed to a GD or OGD condition for 6 hours or 12 hours to induce apoptosis, and then stained with trypan blue (0.4%) to quantify a degree of apoptosis."}, "[3]": {"system": "middle cerebral artery occlusion (MCAO) animal model", "experiment": "Neuroprotective effect in MCAO animal model, administration after triggering of ischemic stroke", "assay_type": "in vivo", "conditions": "mouse, 3 mg/kg once by intravenous injection after MCAO operation, compared to control group", "excerpt": "(§2) A mouse was anesthetized and an epidermis around the neck was incised. The left common carotid artery linked to the left hemisphere was ligated with a surgical suture, and then the external carotid artery was incised to insert a filament thereinto. The filament was pushed into the middle cerebral artery through the internal carotid artery to locally clog the middle cerebral artery, thereby interrupting blood supply to construct an ischemic animal model. After cerebral infarction was induced in the animal model for 1 hour, the filament was removed from the blood vessel (artery), and then the blood was supplied again to the blood vessel, followed by suturing.\nAn MCAO operation was conducted on a mouse as described in Example 1-4 to trigger ischemic stroke, and then juglone (3 mg/kg) was administered once to the mouse by intravenous injection. Afterward, the resultant mouse was compared with the control group mouse to which the juglone was not administered."}, "[4]": {"system": "Pin1 protein", "experiment": "Pin1 protein expression in primary neuronal cells in ischemic stroke-like environment (immunocytochemistry, western blotting)", "assay_type": "cell-based", "conditions": "OGD or GD condition, FIGS. 4A and 4B", "description": "(§8) Primary neuronal cells were cultured in a glucose and serum-free medium in a 5% or 1% oxygen incubator for 9, 12 and 24 hours to create an ischemic stroke-like environment on a cellular level, thereby inducing the neuronal cell death. Afterward, an expression level of the Pin1 protein was analyzed by immunocytochemistry and western blotting.\n(§9) In addition, after the neuronal cells were cultured under the OGD condition for 12 hours, the induction of the neuronal cell death was detected by trypan blue (0.4%) staining, which is shown in FIG. 4C."}, "[5]": {"system": "cleaved caspase-3 (CLCas-3) protein", "experiment": "Cleaved caspase-3 expression in primary neuronal cells under GD or OGD by western blotting", "assay_type": "cell-based", "conditions": "GD or OGD condition for 12 hours or 24 hours, FIGS. 4D and 4E", "protocol": "as §1, with “hour. Afterward, the membrane was reacted overnight with primary antibodies, such as Pin1 (R&D, Epitomics), NICD1 (Upstate), MYC (Roche), FBW7 (Bioss), or Actin (Sigma), which specifically bound to each protein whose expression level was to be confirmed, at 4° C. The next day, the membrane was washed with Tris-buffered saline-T (20 mM Tris-HCL, pH 7.5, 137 mM NaCl, 0.2% Tween-20) three times each for 10 minutes.” for “hour.”\n(§3) Subsequently, primary neuronal cells were cultured under a GD or OGD condition for 12 hours or 24 hours, and then changes in expressions of caspase-3, which is one of the apoptosis signal proteins, and NICD1 protein were analyzed by western blotting."}, "[6]": {"system": "NICD1 protein", "experiment": "NICD1 expression in primary neuronal cells under GD or OGD by western blotting", "assay_type": "cell-based", "conditions": "GD or OGD condition, FIGS. 4F and 4G", "protocol": "as §1, with “hour. Afterward, the membrane was reacted overnight with primary antibodies, such as Pin1 (R&D, Epitomics), NICD1 (Upstate), MYC (Roche), FBW7 (Bioss), or Actin (Sigma), which specifically bound to each protein whose expression level was to be confirmed, at 4° C. The next day, the membrane was washed with Tris-buffered saline-T (20 mM Tris-HCL, pH 7.5, 137 mM NaCl, 0.2% Tween-20) three times each for 10 minutes.” for “hour.”\nas §3"}, "[7]": {"system": "FBW7 protein", "experiment": "FBW7 expression in left hemisphere of MCAO mouse, administration before MCAO (western blotting)", "assay_type": "in vivo", "conditions": "3 mg/kg intraperitoneally twice before MCAO, compared to control group, FIGS. 7C and 7D", "protocol": "(§4) A sample was prepared by isolating a protein from cells, and analyzed by 10% sodium dodecyl sulfate (SDS)-polyacrylamide gel electrophoresis using Tris-glycine running buffer. The gel was removed after the electrophoresis, and a transferring process was performed using a transfer buffer containing 0.025 mol/L Tris base, 0.15 mol/L glycine, and 10% (v/v) methanol at 15 V for 1.5 hours to transfer proteins onto a nitrocellulose membrane along an electrical flow. The protein-binding membrane was immersed in blocking buffer (5% non-fat milk in 20 mM Tris-HCl, pH 7.5, 137 mM NaCl, 0.2% Tween-20), and reacted at room temperature for 1 hour. […] The next day, the membrane was washed with Tris-buffered saline-T (20 mM Tris-HCL, pH 7.5, 137 mM NaCl, 0.2% Tween-20) three times each for 10 minutes. In addition, the membrane was reacted with secondary antibodies at room temperature for 1 hour, washed again three times, and then scanned using an Odyssey® Infrared Imaging System (LI-COR Biosciences) or ECL-plus system to analyze the expression level of each protein.\n(§5) A mouse was anesthetized and an epidermis around the neck was incised. […]\n(§6) In addition, the left hemisphere of the stroke-triggered mouse was analyzed by western blotting to compare the expressions of NICD1, Pin1 and FBW7 proteins."}, "[8]": {"system": "NICD1 ubiquitination", "experiment": "NICD1 ubiquitination by co-immunoprecipitation and western blotting in Pin1-overexpressing SH-SY5Y cells", "assay_type": "cell-based, human", "conditions": "1.5 μM, Pin1-overexpressing SH-SY5Y treated with MG132, FIG. 3A", "excerpt": "MYC-tagged NICD1, HA-tagged ubiquitin (Ub), and Pin1 were expressed in SH-SY5Y cell lines, and treated with MG132 to inhibit a proteolytic activity of a 26S proteasome complex. Afterward, HA and FBW7-specific antibodies were used to analyze a degree of NICD1 ubiquitination by co-immunoprecipitation (IP) and western blotting (WB)."}, "[9]": {"system": "NICD1 protein", "experiment": "NICD1 expression in MCAO mouse brain, administration after stroke (western blotting)", "assay_type": "in vivo", "conditions": "3 mg/kg once by intravenous injection after MCAO, compared to control group, FIGS. 8C and 8D", "protocol": "as §4\n(§7) A mouse was anesthetized and an epidermis around the neck was incised. The left common carotid artery linked to the left hemisphere was ligated with a surgical suture, and then the external carotid artery was incised to insert a filament thereinto. […]"}, "[10]": {"system": "Pin1 protein", "experiment": "Pin1 expression in MCAO mouse brain, administration after stroke (western blotting)", "assay_type": "in vivo", "conditions": "3 mg/kg once by intravenous injection after MCAO, compared to control group, FIGS. 8C and 8D", "protocol": "as §4, §7"}, "[11]": {"system": "FBW7 protein", "experiment": "FBW7 expression in MCAO mouse brain, administration after stroke (western blotting)", "assay_type": "in vivo", "conditions": "3 mg/kg once by intravenous injection after MCAO, compared to control group, FIGS. 8C and 8D", "protocol": "as §4, §7"}, "[12]": {"system": "primary neuronal cells", "experiment": "Neuronal cell death under OGD condition by trypan blue staining", "conditions": "OGD condition for 12 hours, FIG. 4C", "description": "as §8, §9"}, "[13]": {"system": "NICD1 protein", "experiment": "NICD1 expression in left hemisphere of MCAO mouse, administration before MCAO (western blotting)", "assay_type": "in vivo", "conditions": "3 mg/kg intraperitoneally twice before MCAO, compared to control group, FIGS. 7C and 7D", "protocol": "as §4, §5, §6"}, "[14]": {"system": "Pin1 protein", "experiment": "Pin1 expression in left hemisphere of MCAO mouse, administration before MCAO (western blotting)", "assay_type": "in vivo", "conditions": "3 mg/kg intraperitoneally twice before MCAO, compared to control group, FIGS. 7C and 7D", "protocol": "as §4, §5, §6"}, "[15]": {"system": "middle cerebral artery occlusion (MCAO) animal model", "experiment": "Stroke inhibitory effect in MCAO animal model, administration before MCAO operation", "assay_type": "in vivo", "conditions": "mouse, 3 mg/kg intraperitoneally twice before MCAO operation, compared to control group", "excerpt": "as §2\nIschemic stroke was trigged in the mouse by intraperitoneally administering the juglone (3 mg/kg) twice and conducting an MCAO operation, and then the resultant mouse was compared with a control group mouse to which the juglone was not administered."}}}
{"smiles": "C[C@H](NC(=O)Cc1cc(F)cc(F)c1)C(=O)N[C@H](C(=O)OC(C)(C)C)c1ccccc1", "note": "[DAPT, N-[N-(3,5-difluorophenacetyl)-1-alanyl]-S-phenylglycine t-butyl ester]", "values": [{"measurement": "expression of NICD1 protein", "setting": "[1]", "result": "increase in NICD1 was not found"}]}
{"smiles": "S=C(SC(=S)N1CCCCC1)N1CCCCC1", "note": "[DTM, dipentamethylene thiuram monosulfide]", "values": [{"measurement": "apoptosis (trypan blue)", "setting": "[2]", "result": "decreased to a greater or less extent"}]}
{"smiles": "CCOC(=O)CN1C(=O)c2ccc3c4c(ccc(c24)C1=O)C(=O)N(CC(=O)OCC)C3=O", "note": "[PiB, diethyl-1,3,6,8-tetrahydro-1,3,6,8-tetraoxobenzo phenanthroline-2,7-diacetate]", "values": [{"measurement": "apoptosis (trypan blue)", "setting": "[2]", "result": "decreased to a greater or less extent"}]}
{"smiles": "O=C1C=CC(=O)c2c(O)cccc21", "note": "[juglone, 5-hydroxy-1,4-naphthoquinone]", "values": [{"measurement": "apoptosis (trypan blue)", "setting": "[2]", "result": "decreased to a greater or less extent"}, {"measurement": "generation of ischemia", "setting": "[3]; FIG. 8A", "result": "decreased"}, {"measurement": "neurological deficits", "setting": "[3]; FIG. 8B", "result": "decreased"}, {"measurement": "Pin1 expression", "setting": "[4]", "result": "reduced"}, {"measurement": "expression of cleaved caspase-3 (CLCas-3) protein", "setting": "[5]", "result": "decreased"}, {"measurement": "expression of NICD1 protein", "setting": "[6]", "result": "decreased"}, {"measurement": "expression of FBW7 protein", "setting": "[7]", "result": "increased"}, {"measurement": "NICD1 ubiquitination", "setting": "[8]", "result": "increased again"}, {"measurement": "expression of NICD1 protein", "setting": "[9]", "result": "decreased"}, {"measurement": "expression of Pin1 protein", "setting": "[10]", "result": "decreased"}, {"measurement": "expression of FBW7 protein", "setting": "[11]", "result": "increased"}, {"measurement": "apoptosis (neuronal cell death, trypan blue)", "setting": "[12]", "result": "reduced"}, {"measurement": "expression of NICD1 protein", "setting": "[13]", "result": "decreased"}, {"measurement": "expression of Pin1 protein", "setting": "[14]", "result": "decreased"}, {"measurement": "generation of ischemia", "setting": "[15]; FIG. 7A", "result": "decreased"}, {"measurement": "neurological deficits", "setting": "[15]; FIG. 7B", "result": "decreased"}]}
